{"source": "patent US8895574B2", "about": "“Benzyloxypyrimidine derivative, agricultural/ horticultural insecticide comprising derivative and method for using same” (Nihon Nohyaku Co., Ltd., priority 2010, dated 2014)", "system": "cattle tick (Haemaphysalis longicornis)", "test": "Acaricidal effect on cattle tick, absorbent cotton in glass bottle", "type": "in vivo", "conditions": "96 h, 100 ppm drug solution, 2 ml, 4 days after inoculation, read-out: acaricidal effect against cattle tick (corrected mortality, judged by criterion)", "experimental": "Acaricidal Effect on Cattle Tick (Haemaphysalis longicornis)\nAn absorbent cotton was placed on the basement of a glass bottle (diameter 3 cm×height 4.5 cm). The pyrimidine derivative of the present invention represented by the formula (I) or a salt thereof was dispersed in water to give a diluted drug solution (100 ppm). The drug solution (2 ml) was added dropwise. Cattle ticks were inoculated by 5 each, and the bottle was capped with a mesh. After 4 days from the inoculation, the dead ticks and live ticks were counted, and the corrected mortality was calculated by the following formula. corrected mortality (%)=(survival rate in untreated group−survival rate in treated group)/(survival rate in untreated group)×100 Diagnostic criteria . . . as defined in Experimental Example 1", "data": [{"smiles": "COc1cncnc1OCc1ccc(C(C)(C)C)cc1", "note": "[1-1, 4-(4-t-butylbenzyloxy)-5-methoxypyrimidine]", "values": [{"measurement": "mortality at 100 ppm", "value": "50 to 79", "unit": "%"}]}]}
